Results from US6426355B1, “Heterocyclic carboxamide-containing thiourea inhibitors of herpes viruses containing phenylenediamine group” (American Home Products, priority 1998, dated 2002).
Converted amounts (≈) assume the structure as drawn.

Tests used:
[1] = tested on: HCMV recombinant mutant virus (RV145); assay: HCMV microtiter plate assay (beta-glucuronidase reporter); type: cell-based, Human Cytomegalovirus; settings: for IC50 (ug/ml) HCMV: HCMV in human foreskin fibroblasts
Method in brief: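 Replication was read out as virus-encoded β-glucuronidase activity, measured with a chromogenic or fluorogenic glucuronide substrate in cell lysates at 96 h post-infection. Infection of human foreskin fibroblasts with RV145 took place with compound present. IC50 was derived from a range of inhibitor amounts.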

VZV strain Ellen = assay: VZV Antiviral (ELISA) assay; type: cell-based; settings: for IC50 (ug/ml) VZV / % inhibition 10 ug/ml VZV: VZV strain Ellen in HFF cells; for % inhibition 10 ug/ml VZV: at 10 ug/ml
Method in brief: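 HFF cells infected with VZV Ellen at low multiplicity (<0.1) overnight were seeded at 3.5×10^4 cells/well in DMEM with 2% FBS plus compound and incubated three days at 37° C., 5% CO2. Viral replication was read by ELISA against glycoprotein II with β-galactosidase fluorogenic readout (ex 365/em 450 nm); IC50 relative to no-compound fluorescence.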

HSV-1 = assay: HSV Antiviral (ELISA) assay; type: cell-based; settings: for IC50 (ug/ml) HSV: HSV-1 in Vero cells
Method in brief: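 Replication measured as glycoprotein D signal in fixed cells: anti-gD antibody plus β-galactosidase-linked secondary, fluorogenic substrate read at 365/450 nm. Vero cells (2% FBS DMEM) received compound 30 min pre-infection, HSV-1 MOI 0.006, ~24 h incubation; IC50 relative to no-compound fluorescence.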

SMILES	IC50 (ug/ml) HCMV [1] [µg/mL]	IC50 (ug/ml) VZV (VZV strain Ellen) [µg/mL]	% inhibition 10 ug/ml VZV (VZV strain Ellen) [%]	IC50 (ug/ml) HSV (HSV-1) [µg/mL]	IC50 ([1]; Human betaherpesvirus 5, Fibroblast, read-out: IC50 (ug/ml) HCMV) [µg/mL]	IC50 (VZV strain Ellen; Human alphaherpesvirus 3, VZV strain Ellen in HFF cells, read-out: IC50 (ug/ml) VZV) [µg/mL]	inhibition at 10 µg/mL (VZV strain Ellen; Human alphaherpesvirus 3, read-out: % inhibition 10 ug/ml VZV, at 10 ug/ml, VZV strain Ellen in HFF cells) [%]	IC50 (HSV-1; Human alphaherpesvirus 1, HSV-1 in Vero cells, read-out: IC50 (ug/ml) HSV) [µg/mL]
COc1cc(OC)c(NC(=S)Nc2ccc(NC(=O)c3ccco3)cc2)cc1Cl [Example 170]	0.2 (≈ 0.463 µM)	>10	32	>10				
NNC(=O)c1cccc(NC(=S)Nc2ccc(NC(=O)c3csnn3)cc2)c1 [Example 449]	1.6 (≈ 3.87 µM)	>10		>10				
CN(c1ccc(NC(=S)Nc2ccc(NC(=O)c3ccco3)cc2)cc1Cl)C1CCCCC1 [Example 246]	0.05 (≈ 0.104 µM)	4 (≈ 8.28 µM)	37	>10				
CC(NC(=S)Nc1ccc(NC(=O)c2ccco2)cc1)c1ccccc1 (stereo not drawn) [Example 590]	0.12 (≈ 0.328 µM)	1 (≈ 2.74 µM)		>10				
O=C(Nc1ccc(NC(=S)Nc2cc(N3CCC(O)C3)cc(C(F)(F)F)c2)cc1)c1csnn1 (stereo not drawn) [Example 595]	0.022 (≈ 0.0433 µM)	3 (≈ 5.9 µM)		>10				
Nc1cc(Cl)cc(NC(=S)Nc2ccc(NC(=O)c3ccco3)cc2)c1 [Example 435]	0.08 (≈ 0.207 µM)	0.9 (≈ 2.33 µM)	94	10 (≈ 25.8 µM)				
CN(C)c1ccc(NC(=S)Nc2ccc(NC(=O)c3csnn3)cc2)cc1Cl [Example 902, [1,2,3]Thiadiazole-4-carboxylic acid {4-[3-(3-chloro-4-dimethylamino-phenyl)-thioureido]-phenyl}-amide]					0.12 (≈ 0.277 µM)	> 10	10	> 10
Cc1cccc(NC(=S)Nc2ccc(NC(=O)c3ccco3)cc2)c1 [Example 436]	0.15 (≈ 0.427 µM)	>10		10 (≈ 28.5 µM)				
CN(C)c1ccc(Cl)cc1NC(=S)Nc1ccc(NC(=O)c2ccco2)cc1 [Example 489]	0.17 (≈ 0.41 µM)	3.5 (≈ 8.44 µM)	99	5 (≈ 12.1 µM)				
O=C(CN1CCOCC1)Nc1ccc(NC(=S)Nc2ccc(NC(=O)c3ccco3)cc2)cc1Cl [Example 368]	0.35 (≈ 0.681 µM)	>10	20	>10				
